Laboratory results published in paper PMC5854708, “Grass Carp Prolactin Gene: Structural Characterization and Signal Transduction for PACAP-induced Prolactin Promoter Activity” (Scientific Reports, 2018).
Read-outs that look alike come from different tables or passages of the source.

Experiments:
[1] = system: grass carp PRL promoter (pPRL(−1156).Luc) in αT3-1 cells; format: cell-based, grass carp (promoter); rat (αT3-1 cells, as printed); conditions: for effect on Forskolin-induced luciferase activity: Forskolin 100 nM
Experimental: The cells were then cultured for 18 hr recovery before drug treatment. (A) Time course analysis on the effect of oPACAP38 (6–48 hrs) on grass carp PRL promoter activity in αT3-1 cells. (B) αT3-1 cells over-expressed pPRL(−1156).LUC were treated for 24 hrs with increasing doses of oPACAP38. Effects of PACAP and VIP antagonists on PACAP-induced PRL mRNA expression were also investigated. In these experiments, αT3-1 cells over-expressed pPRL(−1156).LUC were challenged with oPACAP38 (10 nM, 24 hr) in the presence or absence of (C) the PACAP antagonist PACAP6-38 (10 nM) or (D) VIP antagonist (4-Cl-D-Phe6, Leu17)VIP (“VIP-R antagonist”, 100 nM).
After 18 h recovery, the cells were incubated with respective drugs. (A) αT3-1 cells over-expressed pPRL(−1156).LUC were treated for 24 hrs with increasing doses of cpt-cAMP (1–100 μM). (B) αT3-1 cells over-expressed pPRL(−1156).LUC were treated for 24 hrs with increasing doses of Forskolin (10–1000 nM). Effects of cAMP/PKA inhibitors on PACAP-induced PRL mRNA expression were then investigated. αT3-1 cells over-expressed pPRL(−1156).LUC were challenged with oPACAP38 (10 nM, 24 hr) in the presence or absence of (C) AC inhibitor MDL12330A (10 μM) or (D) PKA blocker H89 (10 μM).
After 18 h recovery, the cells were incubated with respective drugs. The cells were treated for 24 hr with increasing doses of (A) Ca^2+ ionophore A23187 or (B) L-type VSCC activator Bay K8644. Inhibiting extracellular Ca^2+ entry on PRL mRNA expression in carp pituitary cells was examined. In this study, αT3-1 cells over-expressed pPRL(−1156).LUC were treated with (C) oPACAP38 (10 nM, 24 hrs) or (D) Forskolin (100 nM, 24 hrs) in the Ca^2+-free medium (with different doses of EGTA).
After 18 h recovery, the cells were incubated with respective drugs.

PRL promoter = system: PRL promoter; design: method as in 2 sources, one per row (each row's own in cited_ref): ref 2 = [2]; PMID 15731170; doi:10.1210/me.2004-0111; 2. Liu, J. C., Baker, R. E., Chow, W., Sun, C. K. & Elsholtz, H. P. Epigenetic mechanisms in the dopamine D2 receptor-dependent inhibition of the prolactin gene. Mol Endocrinol 19 , 1904–1917, doi:10. ||| ref 3 = [3]; PMID 1922085; doi:10.1210/mend-5-4-535; 3. Yan GZ Pan WT Bancroft C Thyrotropin-releasing hormone action on the prolactin promoter is mediated by the POU protein pit-1 Mol Endocrinol 1991 5 535 541 10.1210/mend-5-4-535 1922085; conditions: mammals, cited from earlier work
Source text: (§1) Prolactin (PRL) is a pituitary hormone with diverse function. […] In mammals, transcription of PRL gene is regulated by multiple factors. […] Furthermore, sex steroid ...

[2] = system: PRL promoter / PRL transcript; design: method as in PMID 17904137; conditions: goldfish; cited from earlier work
Source text: as §1

PRL gene transcription = system: PRL gene transcription; design: method as in PMID 18006630, PMID 18022314; conditions: human; cited from earlier work
Source text: as §1

[3] = system: PRL gene expression in GH4C1 cells; conditions: cited from earlier work
Source text: (§2) PACAP and vasoactive intestinal peptide (VIP) are members of the glucagon/secretin peptide family and have been reported to play roles in PRL regulation. […] In contrast to VIP, the biological actions of PACAP on ...

PAC1 receptors = conditions: cited from earlier work
Source text: as §2

[4] = system: PRL secretion / PRL gene expression; conditions: mammals, cited from earlier work
Source text: as §2

[5] = W7 30 μM or W13 100 μM, pre-treated 15 mins, PACAP 100 nM (Supplementary Fig. 4), 24 hours, n = 4
[6] = calmidazolium 1 μM, W7 30 μM, W13 100 μM or KN62 5 μM, n = 4
[7] = calmidazolium 1 μM or KN62 5 μM, oPACAP38 10 nM, 24 hrs, n = 4
[8] = U0126, PD169316 or SP600125, each 10 μM, n = 4
[9] = U0126, PD169316 or SP600125, each 10 μM, oPACAP38 10 nM, 24 hrs, n = 4
[10] = 24-hr, A23187 1–100 nM or Bay K8644 1–100 nM, n = 4
[11] = 24 hr, MDL12330A 10 μM or H89 10 μM, n = 4
[12] = oPACAP38 10 nM, 24 hr, MDL12330A 10 μM or H89 10 μM, n = 4
[13] = LY294002 10 μM or Wortmannin 10 nM, n = 4

With `NCCCCCCNS(=O)(=O)c1cccc2c(Cl)cccc12` [W7] the “effect on PACAP-stimulated luciferase activity” value [1, 5] was “suppressed/totally inhibited” and the “effect on basal luciferase activity” value [1, 6] was “suppressed/totally inhibited”.
For thyrotropin-releasing hormone [TRH], the “effect on PRL promoter” value (PRL promoter; via pit-1 transactivation) is listed as “stimulate PRL promoter”, the “effect on PRL promoter activity” value [2] is listed as “suppressed” and the “effect on PRL transcript expression” value [2] is listed as “suppressed”.
For `O=C(O)CN(CCOCCOCCN(CC(=O)O)CC(=O)O)CC(=O)O` [EGTA], the “effect on Forskolin-induced luciferase activity” value ([1]; EGTA 1–4 mM, Ca^2+-free medium, 24 hrs, n = 4) was “suppressed dose-dependently” and the “effect on PACAP-induced luciferase activity” value ([1]; EGTA 1–4 mM, Ca^2+-free medium, oPACAP38 10 nM, 24 hrs, n = 4) was “suppressed dose-dependently”.
For `Clc1ccc(C(c2ccc(Cl)cc2)n2cc[n+](CC(OCc3ccc(Cl)cc3Cl)c3ccc(Cl)cc3Cl)c2)cc1` (centres unmarked) [calmidazolium], the “effect on PACAP-stimulated luciferase activity” value [1, 7] was “suppressed/totally inhibited” and the “effect on basal luciferase activity” value [1, 6] was “suppressed/totally inhibited”.
For estrogen, the “effect on PRL gene transcription” value (PRL gene transcription) is given as “potent stimulator for PRL gene transcription”.
With `CO[C@H]1C[C@@H]2CC[C@@H](C)[C@@](O)(O2)C(=O)C(=O)N2CCCC[C@H]2C(=O)O[C@H]([C@H](C)C[C@@H]2CC[C@@H](O)[C@H](OC)C2)CC(=O)[C@H](C)/C=C(\C)[C@@H](O)[C@@H](OC)C(=O)[C@H](C)C[C@H](C)/C=C/C=C/C=C/1C` [rapamycin] the “effect on PACAP-induced luciferase activity” value ([1]; rapamycin 20 nM, oPACAP38 10 nM, 24 hrs, n = 4) was “attenuated”.
In the case of vasoactive intestinal peptide [VIP], the “effect on PRL gene expression” value [3] is listed as “stimulatory effects”, the “affinity/specificity at PAC1 receptors” value (PAC1 receptors) is listed as “little/very low affinity” and the “effect on PRL secretion” value ([4]; ref 8) is listed as “stimulatory effects”. The “effect on PRL gene expression” value ([4]; ref 9) was “stimulatory effects”.
In the case of `N#CC(=C(/N)Sc1ccccc1N)/C(C#N)=C(/N)Sc1ccccc1N` [U0126], the “effect on basal luciferase activity” value [1, 8] is reported as “not affected” and the “effect on PACAP-induced luciferase activity” value [1, 9] is reported as “not affected”.
For `Oc1c2ccccc2c2c3c(cccc13)N=N2` [SP600125], the “effect on basal luciferase activity” value [1, 8] was “not affected” and the “effect on PACAP-induced luciferase activity” value [1, 9] was “not affected”.
With `COC(=O)C1=C(C)NC(C)=C([N+](=O)[O-])C1c1ccccc1C(F)(F)F` (centres unmarked) [Bay K8644] the “effect on luciferase activity expression” value [1, 10] was “effective in stimulating luciferase activity expression”.
For PACAP6–38, the “effect on oPACAP38-induced PRL promoter activity” value ([1]; oPACAP38 10 nM, 24 hr, antagonist PACAP6–38 100 nM (text; legend: 10 nM), n = 4) was “blocked”.
For `CN([C@@H](Cc1ccc(OS(=O)(=O)c2cccc3cnccc23)cc1)C(=O)N1CCN(c2ccccc2)CC1)S(=O)(=O)c1cccc2cnccc12` [KN62], the “effect on PACAP-stimulated luciferase activity” value [1, 7] was “suppressed/totally inhibited” and the “effect on basal luciferase activity” value [1, 6] was “suppressed/totally inhibited”.
In the case of `CCCCCCCCCCCCCCCCCCOCC(COP(=O)([O-])OCC[N+](C)(C)C)OC` (centres unmarked) [Edelfosine], the “effect on PACAP-stimulated luciferase activity” value ([1]; Edelfosine 20 μM or 2-APB 100 μM, oPACAP38 10 nM, 24 hrs, n = 4) is reported as “effectively abolished”.
With `CN(C)CCCn1cc(C2=C(c3c[nH]c4ccccc34)C(=O)NC2=O)c2ccccc21` [GF109203] the “effect on PACAP-induced luciferase activity” value ([1]; GF109203 1 μM, oPACAP38 10 nM, 24 hrs, n = 4) was “not effective in altering PACAP induction”.
In the case of `COC(=O)C1=C(C)NC(C)=C(C(=O)OC)C1c1ccccc1[N+](=O)[O-]` [nifedipine], the “effect on Forskolin-induced luciferase activity” value ([1]; nifedipine 10 μM, 24 hrs, n = 4) is reported as “effective in attenuating” and the “effect on PACAP-induced luciferase activity” value ([1]; nifedipine 10 μM, oPACAP38 10 nM, 24 hrs, n = 4) is reported as “effective in attenuating”.
For `NCCCCNS(=O)(=O)c1ccc2c(Cl)cccc2c1` [W13], the “effect on PACAP-stimulated luciferase activity” value [1, 5] was “suppressed/totally inhibited” and the “effect on basal luciferase activity” value [1, 6] was “suppressed/totally inhibited”.
For `O=S(=O)(NCCNC/C=C/c1ccc(Br)cc1)c1cccc2cnccc12` [H89], the “effect on basal luciferase activity” value [1, 11] was “markedly suppressed” and the “effect on oPACAP38-induced luciferase activity” value [1, 12] was “totally abolished”.
With `Cl.c1ccc(C2CCCC2NC2=NCCCCCCCCCCC2)cc1` (centres unmarked) [MDL12330A] the “effect on basal luciferase activity” value [1, 11] was “markedly suppressed” and the “effect on oPACAP38-induced luciferase activity” value [1, 12] was “totally abolished”.
In the case of `CNc1ccc2oc(C[C@H]3O[C@@]4(CC[C@H]3C)O[C@H]([C@H](C)C(=O)c3ccc[nH]3)[C@H](C)C[C@H]4C)nc2c1C(=O)O` [A23187], the “effect on luciferase activity expression” value [1, 10] is reported as “effective in stimulating luciferase activity expression”.
With `COc1ccc2c(c1)CC[C@@H]1[C@@H]2CC[C@]2(C)[C@@H](NCCCCCCN3C(=O)C=CC3=O)CC[C@@H]12` [U73122] the “effect on PACAP-stimulated luciferase activity” value ([1]; U73122 10 μM, pre-treated 15 mins, PACAP 100 nM (Supplementary Fig. 4), 24 hours, n = 4) was “effectively abolished”.
For `C=C[C@@]1(C)CC(=O)[C@]2(O)[C@@]3(C)[C@@H](O)CCC(C)(C)[C@@H]3[C@H](O)[C@H](OC(C)=O)[C@@]2(C)O1` [Forskolin], the “effect on luciferase activity expression” value ([1]; 24 hrs, Forskolin 10–1000 nM, n = 4) was “dose-dependently increased”.
With `COC[C@H]1OC(=O)c2coc3c2[C@@]1(C)C1=C(C3=O)[C@@H]2CCC(=O)[C@@]2(C)C[C@H]1OC(C)=O` [Wortmanin] the “effect on basal luciferase activity” value [1, 13] was “effective in reducing” and the “effect on PACAP-induced luciferase activity” value ([1]; Wortmannin 10 nM, oPACAP38 10 nM, 24 hrs, n = 4) was “effective in reducing”.
In the case of `Nc1ncnc2c1nc(Sc1ccc(Cl)cc1)n2C1OC2COP(=O)(O)OC2C1O` (centres unmarked) [cpt-cAMP, 8-(4-chlorophenylthio)-cAMP], the “effect on luciferase activity expression” value ([1]; 24 hrs, cpt-cAMP 1–100 μM, n = 4) is reported as “dose-dependently increased”.
In the case of `O=c1cc(N2CCOCC2)oc2c(-c3ccccc3)cccc12` [LY294002], the “effect on basal luciferase activity” value [1, 13] is reported as “effective in reducing” and the “effect on PACAP-induced luciferase activity” value ([1]; LY294002 10 μM, pre-treated 15 mins, PACAP 100 nM (Supplementary Fig. 4), 24 hours, n = 4) is reported as “effective in reducing”.
In the case of `NCCc1ccc(O)c(O)c1` [Dopamine], the “effect on PRL promoter activity” value (PRL promoter; via dopamine D2 receptor activation) is listed as “inhibitory effect on PRL promoter activity” and the “effect on PRL promoter activity” value [2] is listed as “inhibition of PRL promoter activity”.
For `NCCOB(c1ccccc1)c1ccccc1` [2-APB, 2-aminoethoxydiphenyl borate], the “effect on PACAP-stimulated luciferase activity” value [1] was “effectively abolished”.
